Source: article PMC9219689, “The Antioxidant Cyclic 3-Hydroxymelatonin Promotes the Growth and Flowering of Arabidopsis thaliana” (Antioxidants, 2022)

T1: AtM3H (Arabidopsis thaliana melatonin 3-hydroxylase) (Arabidopsis thaliana, UniProt Q39224)
T1 construct: gene SRG1; full length, 358 residues; N-terminal hexahistidine tag (pET300), removal not mentioned; E. coli BL21(DE3), Ni-NTA purified
T1 sequence (Q39224 1-358): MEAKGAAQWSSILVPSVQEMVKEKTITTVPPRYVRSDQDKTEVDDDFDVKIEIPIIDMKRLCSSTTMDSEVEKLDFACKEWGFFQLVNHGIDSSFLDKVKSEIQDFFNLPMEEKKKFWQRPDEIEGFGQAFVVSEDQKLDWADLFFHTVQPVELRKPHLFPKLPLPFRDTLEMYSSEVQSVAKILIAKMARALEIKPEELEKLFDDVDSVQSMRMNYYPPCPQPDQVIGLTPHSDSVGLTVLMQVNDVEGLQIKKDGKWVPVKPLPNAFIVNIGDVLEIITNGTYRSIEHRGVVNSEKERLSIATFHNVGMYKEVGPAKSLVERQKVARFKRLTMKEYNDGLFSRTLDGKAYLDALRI


Key:
[1] = target: T1, AtM3H (Arabidopsis thaliana melatonin 3-hydroxylase); experiment: HPLC with fluorescence detection of 3-OHM; inhibition of M3H activity; format: biochemical
[2] = substrate: COc1ccc2[nH]cc(CCNC(C)=O)c2c1; experiment: purified protein; conditions: co-substrate α-ketoglutarate (160 µM in standard assay), FeSO4 100 µM, ascorbate 1 mM, catalase, optimum conditions (pH 7.3, 30 °C; Methods list Tris/HCl pH 8.0)

Molecule | inhibition at 500 µM [1] | Km [2]
CCC(=O)C1C(=O)CC(C(=O)O)CC1=O (centres unmarked) [Prohexadione-Ca] | 50% | –
AtM3H (Arabidopsis thaliana melatonin 3-hydroxylase) (Arabidopsis thaliana) (protein) MEAKGAAQWSSILVPSVQEMVKEKTITTVPPRYVRSDQDKTEVDDDFDVKIEIPIIDMKRLCSSTTMDSEVEKLDFACKEWGFFQLVNHGIDSSFLDKVKSEIQDFFNLPMEEKKKFWQRPDEIEGFGQAFVVSEDQKLDWADLFFHTVQPVELRKPHLFPKLPLPFRDTLEMYSSEVQSVAKILIAKMARALEIKPEELEKLFDDVDSVQSMRMNYYPPCPQPDQVIGLTPHSDSVGLTVLMQVNDVEGLQIKKDGKWVPVKPLPNAFIVNIGDVLEIITNGTYRSIEHRGVVNSEKERLSIATFHNVGMYKEVGPAKSLVERQKVARFKRLTMKEYNDGLFSRTLDGKAYLDALRI | – | 100 µM
